This is an account of results in patent US10251874B2, “Crystalline forms of a JAK inhibitor compound” (THERAVANCE BIOPHARMA R&D IP, LLC, priority 2017, dated 2019).

Where two headings read alike, the source gives them in different places.

Format in all cases: cell-based
For assay [1], the system named is IFNγ induced CXCL9 secretion in EpiAirway tissue cultures. The assay can be described thus: Assay 15: IFNγ induced CXCL9 in human 3D airway cultures. The settings on record: 192 h, Day 8, average from 3 or 4 donors, read-out: % inhibition of IFNγ induced CXCL9 secretion (±STDV). The procedure: (§1) EpiAirway tissue cultures were obtained from Mattek (AIR-100). Cultures were derived from asthmatic donors. In a cell culture insert, human derived tracheal/bronchial epithelial cells were grown and differentiated on a porous membrane support, allowing an air-liquid interface with warmed culture medium below the cells and a gaseous test atmosphere above. Tissues were cultured in maintenance media (Mattek, AIR-100-MM) in a 37° C., 5% CO2 humidified incubator. Four donors were tested. On Day 0, tissue cultures were treated with test compounds at 10 μM, 1 μM and/or 0.1 μM. Compounds were diluted in dimethyl sulfoxide (DMSO, Sigma) to a final concentration of 0.1%. DMSO at 0.1% was used as a vehicle control. Test compounds were incubated with cultures for 1 hour at 37° C., 5% CO2, followed by the addition of pre-warmed media containing IFNγ (R&D Systems) or IL-27 (R&D Systems) at a final concentration at 100 ng/ml. Tissue cultures were maintained for 8 days. Media was replaced every 2 days with fresh media containing compounds and IFNγ or IL-27. On Day 8, tissue cultures and supernatants were collected for analysis. Supernatant samples were assayed for CXCL10 (IP-10) and CXCL9 (MIG) using luminex analysis (EMD Millipore). Data is expressed as % Inhibition +/−standard deviation (±STDV). Percent inhibition was determined by compound inhibitory potency against IFNγ or IL-27 induced CXCL10 or CXCL9 secretion compared to vehicle treated cells. Data is the average from 3 or 4 donors. Compound 1 was able to inhibit IFNγ induced CXCL10 secretion by 99%±2.0 (at 10 μM), 71%±19 (at […]) and 17%±12 (at 0.1 μM) when compared to vehicle control. Compound 1 was able to inhibit IFNγ induced CXCL9 secretion by 100%±0.3 (at 10 μM), 99%±0.9 (at 1 μM) and 74%±17 (at 0.1 μM) when compared to vehicle. […] Compound 1 was able to inhibit IL-27 induced CXCL9 secretion by 100%±0 (at 10 μM), 95%±3.7 (at 1 μM) and 75%±3.5 (at 0.1 μM) when compared to vehicle control.

The test system of assay [2] is IL-5 mediated survival of human eosinophils. The assay can be described thus: Assay 16: IL-5 mediated eosinophil survival assay. The settings on record: 72 h, read-out: pIC50, IL-5 mediated eosinophil survival (cell viability) (converted). The procedure: The potency of the test compound for IL-5 mediated eosinophil survival was measured in human eosinophils isolated from human whole blood (AllCells). Because IL-5 signals through JAK, this assay provides a measure of JAK cellular potency. Human eosinophils were isolated from fresh human whole blood (AllCells) of healthy donors. Blood was mixed with 4.5% Dextran (Sigma-Aldrich) in a 0.9% sodium chloride solution (Sigma-Aldrich). Red blood cells were left to sediment for 35 minutes. The leukocyte rich upper layer was removed and layered over Ficoll-Paque (GE Healthcare) and centrifuged at 600 g for 30 minutes. The plasma and mononuclear cell layers were removed before the granulocyte layer was lysed with water to remove any contaminating red blood cells. […] Purity was analyzed using a LSRII flow cytometer (BD Biosciences). […]
After cytokine stimulation, cells were centrifuged at 300 g for 5 min and washed twice with cold DPBS (Life Technologies). To access viability and apoptosis, cells were incubated with Propidium Iodide (Thermo Fisher Scientific) and APC Annexin V (BD Biosciences) and analyzed using a LSRII flow cytometer (BD Biosciences). IC50 values were determined from analysis of the viability curves of percent cell viability vs compound concentration. Data are expressed as pIC50 (negative decadic logarithm IC50) values.

In assay [3] the test system is IL-27 induced CXCL9 secretion in EpiAirway tissue cultures. The assay can be described thus: Assay 15: IL-27 induced CXCL9 in human 3D airway cultures. The settings on record: 192 h, Day 8, average from 3 or 4 donors, read-out: % inhibition of IL-27 induced CXCL9 secretion (±STDV). The procedure: as §1

Turning to `CCc1cc(O)c(F)cc1-c1ccc2c(-c3nc4c([nH]3)CCN(C3CCN(C)CC3)C4)n[nH]c2c1` [Compound 1, 5-ethyl-2-fluoro-4-(3-(5-(1-methylpiperidin-4-yl)-4,5,6,7-tetrahydro-1H-imidazo[4,5-c]pyridin-2-yl)-1H-indazol-6-yl)phenol], the inhibition (in general, the relative decrease from the control value, in per cent) at 0.1 µM was 74% in assay [1] (at 0.1 μM) and 75% in assay [3] (at 0.1 μM). For the same compound, the results for the inhibition at 1 µM in assay [1] (at 1 μM) and in assay [3] (at 1 μM) were 99% and 95%, respectively. The inhibition at 10 µM in assay [1] (at 10 μM) and in assay [3] (at 10 μM) was 100% in each case. The IC50 in assay [2] (in the presence of 10 pg/ml IL-5, 72 hours) is 12.6 nM; in assay [2] (in the presence of 1 ng/ml IL-5, 72 hours) it was 316 nM.
